Measurements reported in patent publication US9833454B2, “Difluoromethoxy compound with low bioactivation potential for the reduction of beta-amyloid production” (BRISTOL-MYERS SQUIBB COMPANY, priority 2014, dated 2017).
pIC50: −log10 of the molar value. Like-named read-outs stand apart in the source and are kept apart here.

Assays:
[1] = target: T1, CYP2B6 (Homo sapiens, UniProt P20813); test: Inhibition of CYP enzymes in human liver microsomes (HLM), CYP2B6; format: in vitro ADME
T1 sequence (P20813 1-491): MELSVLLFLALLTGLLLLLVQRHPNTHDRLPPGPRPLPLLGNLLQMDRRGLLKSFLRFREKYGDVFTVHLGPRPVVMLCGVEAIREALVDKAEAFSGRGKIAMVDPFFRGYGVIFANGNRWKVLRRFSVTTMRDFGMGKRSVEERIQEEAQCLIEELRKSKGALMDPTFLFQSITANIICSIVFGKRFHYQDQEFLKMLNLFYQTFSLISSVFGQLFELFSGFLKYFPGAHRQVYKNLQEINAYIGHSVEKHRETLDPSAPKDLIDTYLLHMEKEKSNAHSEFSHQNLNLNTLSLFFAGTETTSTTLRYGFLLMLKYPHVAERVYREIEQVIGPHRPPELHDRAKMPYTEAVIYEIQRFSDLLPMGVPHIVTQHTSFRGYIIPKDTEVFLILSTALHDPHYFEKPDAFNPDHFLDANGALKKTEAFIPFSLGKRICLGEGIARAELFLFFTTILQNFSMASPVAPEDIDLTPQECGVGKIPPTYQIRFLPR

[2] = target: adenosine 2A receptor (Homo sapiens, UniProt P29274); test: In vitro safety: off-target receptor binding and enzyme assays, A2A; conditions: in vitro safety panel
Experimental: A range of off-target receptor binding assays and enzyme assays were carried out using conventional methods available in the art.

Chain of adenosine 2A receptor (P29274 whole entry): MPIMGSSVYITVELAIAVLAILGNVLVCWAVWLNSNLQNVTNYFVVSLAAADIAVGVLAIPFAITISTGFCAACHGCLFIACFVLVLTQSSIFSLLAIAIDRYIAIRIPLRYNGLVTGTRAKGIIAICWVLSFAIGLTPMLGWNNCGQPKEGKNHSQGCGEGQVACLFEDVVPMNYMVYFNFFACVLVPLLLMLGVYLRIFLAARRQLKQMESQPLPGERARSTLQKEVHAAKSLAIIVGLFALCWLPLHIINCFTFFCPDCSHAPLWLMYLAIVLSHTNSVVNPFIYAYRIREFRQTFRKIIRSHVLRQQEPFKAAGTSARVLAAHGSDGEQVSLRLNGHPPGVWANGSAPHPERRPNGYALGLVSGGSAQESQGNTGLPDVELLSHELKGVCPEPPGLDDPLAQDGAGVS

CNc1nc(Nc2ccc(-n3cnc(C)n3)c(OC(F)F)c2)nc2c1C(C)(C)CC2c1ccc(F)cc1 (single isomer, unassigned) [Enantiomer 1, N2-(3-(difluoromethoxy)-4-(3-methyl-1H-1,2,4-triazol-1-yl)phenyl)-7-(4-fluorophenyl)-N4,5,5-trimethyl-6,7-dihydro-5H-cyclopenta[d]pyrimidine-2,4-diamine]
pIC50 ([1]; 0 min preincubation, read-out: IC50-0 min 2B6): < 4.40
IC50 Ratio 2B6 ([1]; IC50 shift 0 vs 30 min preincubation (TDI ratio)): 1.0
pIC50 ([1]; read-out: IC50-30 min 2B6, 30 min preincubation with NADPH): < 4.40
pIC50 [2]: 5.70
